Reference: the NIST ThermoML archive (doi:10.1021/je900715y)

Experiment: xn = mol fraction of the nth substance listed
Conditions: 101.3 kPa, Liquid

CCC(C)O (stereo not given) [butan-2-ol] + CCCCCCC
mass density [kg/m3]
Conditions	288.15 K	293.15 K	298.15 K	303.15 K	308.15 K	313.15 K	318.15 K	323.15 K
x1 = 0.05	691.106	686.813	682.487	678.127	673.731	669.301	664.835	660.336
x1 = 0.1	694.641	690.325	685.97	681.576	677.138	672.659	668.131	663.562
x1 = 0.15	698.486	694.158	689.789	685.376	680.913	676.402	671.84	667.23
x1 = 0.2003	702.573	698.236	693.854	689.427	684.946	680.415	675.83	671.188
x1 = 0.3016	711.547	707.194	702.791	698.341	693.835	689.275	684.65	679.969
x1 = 0.4004	721.346	716.97	712.546	708.073	703.542	698.952	694.299	689.584
x1 = 0.5002	732.429	728.035	723.591	719.095	714.54	709.925	705.243	700.502
x1 = 0.5999	744.751	740.362	735.917	731.411	726.839	722.202	717.496	712.72
x1 = 0.65	751.547	747.174	742.739	738.239	733.67	729.03	724.317	719.533
x1 = 0.72	761.59	757.255	752.851	748.373	743.821	739.19	734.479	729.69
x1 = 0.8	774.103	769.827	765.479	761.053	756.541	751.943	747.257	742.488
x1 = 0.8499	782.463	778.238	773.935	769.552	765.08	760.519	755.863	751.116
x1 = 0.8995	791.187	787.015	782.767	778.434	774.01	769.495	764.879	760.166
x1 = 0.9501	800.691	796.583	792.396	788.125	783.761	779.299	774.738	770.073
x1 = 1	810.689	806.646	802.528	798.326	794.03	789.632	785.117	780.515
